Laboratory results taken from article PMC11963564 (Antimicrobial Agents and Chemotherapy, 2025).
Where two headings read alike, the source gives them in different places.

Legend:
SARS-CoV-2 Omicron BA.1 = test: microbe, parasite or virus in culture; type: cell-based
SARS-CoV-2 Omicron BA.4 = test: microbe, parasite or virus in culture; type: cell-based
SARS-CoV-2 Omicron BA.5 = test: microbe, parasite or virus in culture; type: cell-based
[1] = system: SARS-CoV-2 Omicron CH.1.1; test: microbe, parasite or virus in culture; type: cell-based
[2] = system: SARS-CoV-2 Omicron XBB.1.5; test: microbe, parasite or virus in culture; type: cell-based
[3] = system: SARS-CoV-2 Omicron XBB.1.16; test: microbe, parasite or virus in culture; type: cell-based
SARS-CoV-2 Omicron EG.5 = test: microbe, parasite or virus in culture; type: cell-based
SARS-CoV-2 Omicron JN.1 = test: microbe, parasite or virus in culture; type: cell-based
SARS-CoV-2 WIV04 = settings: cited from earlier work
SARS-CoV-2 Delta = settings: cited from earlier work
[4] = Severe acute respiratory syndrome coronavirus 2, Vero C1008, 48 h
[5] = Severe acute respiratory syndrome coronavirus 2, Vero C1008, 72 h

Compound: CC(C)(C)[C@H](NC(=O)C(F)(F)F)C(=O)N1C[C@H]2[C@@H]([C@H]1C(=O)N[C@H](C#N)C[C@@H]1CCNC1=O)C2(C)C [nirmatrelvir, reference compound]
- IC50 (SARS-CoV-2 Omicron BA.1; [4]): 57 ± 12 nM
- IC90 (SARS-CoV-2 Omicron BA.1; [4]): 142 ± 61 nM
- IC50 (SARS-CoV-2 Omicron BA.4; [4]): 72 ± 13 nM
- IC90 (SARS-CoV-2 Omicron BA.4; [4]): 157 ± 77 nM
- IC50 (SARS-CoV-2 Omicron BA.5; [4]): 90 ± 38 nM
- IC90 (SARS-CoV-2 Omicron BA.5; [4]): 341 ± 140 nM
- IC50 [1, 4]: 26 ± 21 nM
- IC90 [1, 4]: 59 ± 26 nM
- IC50 [2, 4]: 22 ± 14 nM
- IC90 [2, 4]: 84 ± 39 nM
- IC50 [3, 5]: 101 ± 23 nM
- IC90 [3, 5]: 262 ± 140 nM
- IC50 (SARS-CoV-2 Omicron EG.5; [5]): 98 ± 26 nM
- IC90 (SARS-CoV-2 Omicron EG.5; [5]): 617 ± 170 nM
- IC50 (SARS-CoV-2 Omicron JN.1; [5]): 98 ± 27 nM
- IC90 (SARS-CoV-2 Omicron JN.1; [5]): 469 ± 183 nM

Compound: simnotrelvir
- IC50 (SARS-CoV-2 Omicron BA.1; read-out: IC50): 148 ± 62 nM
- IC90 (SARS-CoV-2 Omicron BA.1; read-out: IC90): 267 ± 82 nM
- IC50 (SARS-CoV-2 Omicron BA.4; read-out: IC50): 189 ± 6 nM
- IC90 (SARS-CoV-2 Omicron BA.4; read-out: IC90): 250 ± 67 nM
- IC50 (SARS-CoV-2 Omicron BA.5; read-out: IC50): 208 ± 55 nM
- IC90 (SARS-CoV-2 Omicron BA.5; read-out: IC90): 449 ± 171 nM
- IC50 ([1]; read-out: IC50): 65 ± 6 nM
- IC90 ([1]; read-out: IC90): 99 ± 52 nM
- IC50 ([2]; read-out: IC50): 82 ± 58 nM
- IC90 ([2]; read-out: IC90): 254 ± 111 nM
- IC50 ([3]; read-out: IC50): 130 ± 20 nM
- IC90 ([3]; read-out: IC90): 230 ± 93 nM
- IC50 (SARS-CoV-2 Omicron EG.5; read-out: IC50): 174 ± 97 nM
- IC90 (SARS-CoV-2 Omicron EG.5; read-out: IC90): 803 ± 236 nM
- IC50 (SARS-CoV-2 Omicron JN.1; read-out: IC50): 124 ± 31 nM
- IC90 (SARS-CoV-2 Omicron JN.1; read-out: IC90): 684 ± 188 nM
- IC50 (SARS-CoV-2 WIV04): 26 nM
- IC50 (SARS-CoV-2 Delta): 34 nM
